Data: US20120315658A1, “AMELIORATION OF METABOLIC SYNDROME USING PHYSIOLOGICAL FUNCTIONS OF SPHINGOMYELIN SYNTHASE SMS2, OR SCREENING METHODS FOR AMELIORATING AGENTS” (Shionogi & Co., Ltd., priority 2009, published 2012)

Tested on: ZS2/SMS2 cells
Assay: Me beta CD sensitivity test with Myriocin, viable cell number by WST-8
Format: cell-based, mouse
Conditions: for effect of added lipid on cell growth inhibitory effects caused by Myriocin: Myriocin + ceramide (10 microM) or sphingomyelin (15 microM)
Protocol: 1×10^6 MEF cells are washed, and resuspended in 1 ml of serum-free RPMI 1640 medium, and treated with an appropriate concentration of Me beta CD, and cultured in 5% CO2, 37 degrees Celsius for five minutes. After 2 ml of normal medium containing myriocin are added thereto, and the cells are cultured for additional 12 hours. A reagent for measuring viable cell number containing WST-8 (Nakalai Tesque) may be used to measure survival rate of the cells.
More specifically, ZS2/SMS2 cells prepared in Example 2 are placed in 48-well plate dish at 5000 cells/0.2 ml/well (N=3). For cell culture, 0.3% FCS/OPTIPRO SFM (GIBCO) was used. In this case, Myriocin (Final concentration 5 microM) is added, or alternatively, Myriocin+ceramide (10 microM) or Myriocin+sphingomyelin (15 microM) were added thereto. Me beta CD was added at the final concentration of 2 mM, and further cultured in 5% CO2, 37 degrees Celsius for sixteen hours. A reagent for measuring viable cell number containing WST-8 (DOJINDO) was added at 10 microliter/well and further cultured in 5% CO2, 37 degrees Celsius for one hour (WST assay). The viable cell numbers were counted according to the protocol. Y axis represents a numerical value when the average value is deemed to be 100% amongst the cases in the presence and absence of Myriocin, when Me beta CD is not placed therein.

## CCCCCCC(=O)CCCCCC/C=C/C[C@@H](O)[C@H](O)[C@@](N)(CO)C(=O)O [Myriocin]
2 mM Me beta CD, sixteen hours, Myriocin printed as 2 mM
  further reduction of cell growth by addition of Myriocin: about 20%
Me beta CD not placed therein, Myriocin 5 microM
  viable cell number, presence versus absence of Myriocin: not significant difference

## ceramide
2 mM Me beta CD
  effect of added lipid on cell growth inhibitory effects caused by Myriocin: almost completely inhibited the cell growth inhibitory effects caused by Myriocin

## sphingomyelin [SM]
2 mM Me beta CD
  effect of added lipid on cell growth inhibitory effects caused by Myriocin: almost completely inhibited the cell growth inhibitory effects caused by Myriocin

## methyl-beta-cyclodextrin [Me beta CD]
2 mM Me beta CD, sixteen hours, no Myriocin
  reduction of cell growth by Me beta CD: about 50%
